According to patent US11759462B2, “Spirocyclic compounds as tryptophan hydroxylase inhibitors” (priority 2013, dated 2023):
Like-named read-outs stand apart in the source and are kept apart here.

Tests used:
[1] = target: T1, Recombinant human TPH1 (MBP tagged) (Homo sapiens, UniProt P17752); assay: TPH1 in vitro inhibition assay (kinetic fluorescence); assay type: biochemical
T1 construct: cloning full length human TPH1 cDNA in to a bacterial pMAL-c5E expression vector; made in house; host or cells: E. coli BL21 (DE3)
T1 sequence (P17752 1-444): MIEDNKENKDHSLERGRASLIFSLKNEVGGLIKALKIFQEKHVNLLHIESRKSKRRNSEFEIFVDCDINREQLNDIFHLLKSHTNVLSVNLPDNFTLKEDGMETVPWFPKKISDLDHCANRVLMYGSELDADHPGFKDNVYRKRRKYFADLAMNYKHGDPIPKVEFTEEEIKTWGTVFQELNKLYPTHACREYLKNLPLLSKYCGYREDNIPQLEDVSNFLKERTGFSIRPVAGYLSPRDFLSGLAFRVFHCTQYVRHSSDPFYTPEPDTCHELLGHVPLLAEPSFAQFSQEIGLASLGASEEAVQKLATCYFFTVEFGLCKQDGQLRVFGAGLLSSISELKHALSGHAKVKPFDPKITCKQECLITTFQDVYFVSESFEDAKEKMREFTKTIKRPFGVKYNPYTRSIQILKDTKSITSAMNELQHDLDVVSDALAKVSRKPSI
Outline: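 Final mix: 15 nM MBP-TPH1, 30 μM Trp, 36 μM 6-methyltetrahydropterin, 25 μM ferrous ammonium sulfate, 50 mM MES pH 7.1, 1% DMSO, room temperature.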

[2] = system: jejunal mucosal 5-HT in mice (C57 BL6); assay: Intestinal 5-HT depletion assay (Example B, single 150 mg/kg oral dose); assay type: in vivo, mouse; details: one day after oral administration of a single 150 mg/kg dose, P-value class (ANOVA)
Outline: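 C57 BL6 mice received one 150 mg/kg oral gavage dose; jejunal mucosa was homogenized in acidic trichloroacetic acid buffer and 5-HT measured by HPLC. Levels normalized to BCA protein, expressed as mean percent reduction versus vehicle ± SEM; ANOVA significance.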

[3] = system: jejunal mucosal 5-HT in mice (C57 BL6); assay: Reduction of mucosal 5-HT concentrations (Example C, repeated oral dosing); assay type: in vivo, mouse; details: after three oral doses (first 10 or 50 mg/kg, then two doses of 50 mg/kg) (title), P-value class
Protocol: The efficacy of the TPH1 inhibitors of the invention was assessed for the ability to decrease intestinal serotonin concentration in mice. Mice (C57 BL6) were administered an oral dose of 10 or 50 mg/kg of the test article in the evening. […] Following an overnight fast, each animal was euthanized by exsanguination under isoflurane anesthesia. Jejunal intestinal mucosa was isolated and homogenized in […] of a buffer containing 0.3M trichloroacetic acid, 0.1M sodium acetate, 10 mM EDTA, 20 mM sodium bisulfate and 50 mM ascorbic acid. Following centrifugation the 5-HT levels in the supernatants were measured by HPLC. The remaining mucosal pellet was solubilized overnight at 37° C. in a 0.1% sodium dodecyl sulfate buffer in 0.1N NaOH followed by determination of protein concentrations using a BCA protein assay (Pierce, Rockford, Ill.). 5-HT levels were normalized to protein and data were expressed as mean percent reduction of mucosal 5-HT levels relative to vehicle control±SEM (percent 5-HT reduction). All animal studies were carried out with protocols approved by the Institutional Animal Care and Use Committee. P-values, indicating statistical significance of the data (ANOVA) are provided in the table: * refers to P<0.05,** refers to P<0.01, *** refers to P<0.005, and **** refers to P<0.0005.

[4] = read-out: TPH1 Range (TPH1 inhibition IC50)

| IC50 [1, 4] [nM] | Compound | Efficacy (statistical significance of reduction of mucosal 5-HT concentrations relative to vehicle) [2] | IC50 ([1]; TPH1 Range (TPH1 inhibition IC50)) [nM] | Efficacy (statistical significance of reduction of mucosal 5-HT concentrations relative to vehicle) [3] |
| --- | --- | --- | --- | --- |
| 50 to 300 | Nc1nc(O[C@H](c2ccc(-c3cccc(F)c3)cc2)C(F)(F)F)cc(N2CCC3(CC2)CN[C@H](C(=O)O)C3)n1 [Example 55am, (S)-8-(2-amino-6-((R)-2,2,2-trifluoro-1-(3′-fluoro-[1,1′-biphenyl]-4-yl)ethoxy)pyrimidin-4-yl)-2,8-diazaspiro[4.5]decane-3-carboxylic acid] | *** (*** refers to P<0.005) | – | – |
| 50 to 300 | COc1cccc(-c2ccc([C@@H](Oc3cc(N4CCC5(CC4)CN[C@H](C(=O)O)C5)nc(N)n3)C(F)(F)F)cc2)c1 [Example 55an, (S)-8-(2-amino-6-((R)-2,2,2-trifluoro-1-(3′-methoxy-[1,1′-biphenyl]-4-yl)ethoxy)pyrimidin-4-yl)-2,8-diazaspiro[4.5]decane-3-carboxylic acid] | *** (*** refers to P<0.005) | – | – |
| < 50 | Cc1n[nH]c2cc(-c3ccc([C@@H](Oc4cc(N5CCC6(CC5)CN[C@H](C(=O)O)C6)nc(N)n4)C(F)(F)F)cc3)ccc12 [Example 55az, (S)-8-(2-amino-6-((R)-2,2,2-trifluoro-1-(4-(3-methyl-1H-indazol-6-yl)phenyl)ethoxy)pyrimidin-4-yl)-2,8-diazaspiro[4.5]decane-3-carboxylic acid] | *** (*** refers to P<0.005) | – | – |
| < 50 | Nc1nc(O[C@H](c2ccc(-c3ccc4c(c3)CCNC4=O)cc2)C(F)(F)F)cc(N2CCC3(CC2)CN[C@H](C(=O)O)C3)n1 [Example 55bc, (S)-8-(2-amino-6-((R)-2,2,2-trifluoro-1-(4-(1-oxo-1,2,3,4-tetrahydroisoquinolin-6-yl)phenyl)ethoxy)pyrimidin-4-yl)-2,8-diazaspiro[4.5]decane-3-carboxylic acid] | ** (** refers to P<0.01) | – | – |
| – | Nc1nc(O[C@H](c2ccc(-c3ccc4cnccc4c3)cc2)C(F)(F)F)cc(N2CCC3(CC2)CN[C@H](C(=O)O)C3)n1 [Example 55bd, (S)-8-(2-amino-6-((R)-2,2,2-trifluoro-1-(4-(isoquinolin-6-yl)phenyl)ethoxy)pyrimidin-4-yl)-2,8-diazaspiro[4.5]decane-3-carboxylic acid] | *** (*** refers to P<0.005) | < 50 | – |
| 50 to 300 | Nc1nc(O[C@H](c2ccc(-c3ccc4ncsc4c3)cc2)C(F)(F)F)cc(N2CCC3(CC2)CN[C@H](C(=O)O)C3)n1 [Example 55k, (S)-8-(2-amino-6-((R)-1-(4-(benzo[d]thiazol-6-yl)phenyl)-2,2,2-trifluoroethoxy)pyrimidin-4-yl)-2,8-diazaspiro[4.5]decane-3-carboxylic acid] | * (* refers to P<0.05) | – | – |
| – | CCOC(=O)[C@@H]1CC2(CCN(c3cc(O[C@H](c4cc(Cl)ccc4-c4cccc(S(C)(=O)=O)c4)C(F)(F)F)nc(N)n3)CC2)CN1 [Example 63ae, (S)-ethyl 8-(2-amino-6-((R)-1-(4-chloro-3′-(methylsulfonyl)-[1,1′-biphenyl]-2-yl)-2,2,2-trifluoroethoxy)pyrimidin-4-yl)-2,8-diazaspiro[4.5]decane-3-carboxylate] | – | – | *** (*** refers to P<0.005) |
| – | CCOC(=O)[C@@H]1CC2(CCN(c3cc(O[C@H](c4ccc(Cl)cc4-c4cccc(C)c4)C(F)(F)F)nc(N)n3)CC2)CN1 [Example 63aq, (S)-ethyl 8-(2-amino-6-((R)-1-(5-chloro-3′-methyl-[1,1′-biphenyl]-2-yl)-2,2,2-trifluoroethoxy)pyrimidin-4-yl)-2,8-diazaspiro[4.5]decane-3-carboxylate] | – | – | *** (*** refers to P<0.005) |
| – | CCOC(=O)[C@@H]1CC2(CCN(c3cc(O[C@H](c4ccc(Cl)cc4-c4cccc(C(F)(F)F)c4)C(F)(F)F)nc(N)n3)CC2)CN1 [Example 63ar, (S)-ethyl 8-(2-amino-6-((R)-1-(5-chloro-3′-(trifluoromethyl)-[1,1′-biphenyl]-2-yl)-2,2,2-trifluoroethoxy)pyrimidin-4-yl)-2,8-diazaspiro[4.5]decane-3-carboxylate] | – | – | **** (**** refers to P<0.0005) |
| – | CCOC(=O)[C@@H]1CC2(CCN(c3cc(O[C@H](c4ccc(-c5ccc(Cl)c(Cl)c5)cc4-n4ccc(C)n4)C(F)(F)F)nc(N)n3)CC2)CN1 [Example 63aw, (S)-ethyl 8-(2-amino-6-((R)-1-(3′,4′-dichloro-3-(3-methyl-1H-pyrazol-1-yl)-[1,1′-biphenyl]-4-yl)-2,2,2-trifluoroethoxy)pyrimidin-4-yl)-2,8-diazaspiro[4.5]decane-3-carboxylate] | – | – | **** (**** refers to P<0.0005) |
| – | CCOC(=O)[C@@H]1CC2(CCN(c3cc(O[C@H](c4ccc(-c5ccc(OC(C)C)cc5)cc4-n4ccc(C)n4)C(F)(F)F)nc(N)n3)CC2)CN1 [Example 63cn, (S)-ethyl 8-(2-amino-6-((R)-2,2,2-trifluoro-1-(4′-isopropoxy-3-(3-methyl-1H-pyrazol-1-yl)-[1,1′-biphenyl]-4-yl)ethoxy)pyrimidin-4-yl)-2,8-diazaspiro[4.5]decane-3-carboxylate] | – | – | **** (**** refers to P<0.0005) |
| – | CCOC(=O)[C@@H]1CC2(CCN(c3cc(O[C@H](c4ccc(Cl)cc4-c4cccc(C(C)(C)C)c4)C(F)(F)F)nc(N)n3)CC2)CN1 [Example 63el, (S)-ethyl 8-(2-amino-6-((R)-1-(3′-(tert-butyl)-5-chloro-[1,1 biphenyl]-2-yl)-2,2,2-trifluoroethoxy)pyrimidin-4-yl)-2,8-diazaspiro[4.5]decane-3-carboxylate] | – | – | *** (*** refers to P<0.005) |
| – | CCOC(=O)[C@@H]1CC2(CCN(c3cc(O[C@H](c4ccccc4-c4cccc(Cl)c4)C(F)(F)F)nc(N)n3)CC2)CN1 [Example 63eo, (S)-ethyl 8-(2-amino-6-((R)-1-(3′-chloro-[1,1′-biphenyl]-2-yl)-2,2,2-trifluoroethoxy)pyrimidin-4-yl)-2,8-diazaspiro[4.5]decane-3-carboxylate] | – | – | *** (*** refers to P<0.005) |
| – | CCOC(=O)[C@@H]1CC2(CCN(c3cc(O[C@H](c4ccc(Cl)cc4-c4cccc(OC)c4)C(F)(F)F)nc(N)n3)CC2)CN1 [Example 63ep, (S)-ethyl 8-(2-amino-6-((R)-1-(5-chloro-3′-methoxy-[1,1′-biphenyl]-2-yl)-2,2,2-trifluoroethoxy)pyrimidin-4-yl)-2,8-diazaspiro[4.5]decane-3-carboxylate] | – | – | *** (*** refers to P<0.005) |
| – | CCOC(=O)[C@@H]1CC2(CCN(c3cc(O[C@H](c4ccc(Cl)cc4-c4cccc(F)c4)C(F)(F)F)nc(N)n3)CC2)CN1 [Example 63ev, (S)-ethyl 8-(2-amino-6-((R)-1-(5-chloro-3′-fluoro-[1,1′-biphenyl]-2-yl)-2,2,2-trifluoroethoxy)pyrimidin-4-yl)-2,8-diazaspiro[4.5]decane-3-carboxylate] | – | – | *** (*** refers to P<0.005) |

| Compound | IC50 [1, 4] [nM] | Efficacy (statistical significance of reduction of mucosal 5-HT concentrations relative to vehicle) [2] | IC50 ([1]; TPH1 Range (TPH1 inhibition IC50)) [nM] | Efficacy (statistical significance of reduction of mucosal 5-HT concentrations relative to vehicle) [3] |
| --- | --- | --- | --- | --- |
| (3S)-8-(2-amino-6-(2,2,2-trifluoro-1-(3′-fluoro- [1,1′-biphenyl]-4-yl)ethoxy)pyrimidin-4-yl)-2,8- diazaspiro[4.5]decane-3-carboxylic acid [Example 55ak] | 300 to 3000 | ** (** refers to P<0.01) | – | – |
